Data reported in patent publication US8518952B2, “6 substituted 2-heterocyclylamino pyrazine compounds as CHK-1 inhibitors” (Pfizer Inc., priority 2008, dated 2013).
Where two headings read alike, the source gives them in different places.

Experiments:
HeLa cells = assay: Histone H3 (Ser10) phosphorylation ELISA, abrogation of camptothecin-induced G2 arrest (CHK-1 cellular assay); type: cell-based; conditions: HeLa cells, camptothecin 8 hrs, then compound with nocodozole 16 hours, read-out: EC50
Procedure: The Histone H3 phosphorylation ELISA assay detects cells entering mitosis and represents the primary in vitro cell-based assay used to measure the cellular potency of compounds in abrogating the G2 check point induced by DNA damage in HeLa cells or MiaPaCa cells. The candidate substances were assayed for potency in their ability to inhibit camptothecin-induced G2 arrest, as measured by an increase in Histone H3 phosphorylation on Ser10, a marker of entry into mitosis.
Tissue culture plates were seeded with HeLa cells or MiaPaCa Cells and allowed to attach overnight. The cells were then treated with camptothecin to induce DNA damage for 8 hrs. Candidate substances or diluent were then added in the presence of nocodozole for 16 hours. […] The fresh whole cell lysates were then thawed and added to the ELISA plate with shaking for 3 hours. Between all subsequent steps plates were washed 4 times with PBST. Biotinylated phospho Histone H3 (ser10) detection antibody was added for 1 hour, followed by addition of horseradish peroxidase-linked streptavidin secondary antibody for 1 hour. Color development of the antibody was performed with addition of TMB substrate and incubation for 2 minutes on a plate shaker. […] EC50 values were calculated by sigmoid curve fitting using a four-parameter analysis.
Under the “Ki” column, data entries in the format of “%” are percent inhibition data where no Ki data is available. Data entry under the “EC50” column with an * are data obtained using Mia Paca-2 cells rather than HeLa cells. Data is not available where noted as n/a.

CHK1 (kinase domain) = molecular target: T1, CHK1 (kinase domain) (Homo sapiens, UniProt O14757); assay: CHK1 Ki determination, spectrophotometric coupled (pyruvate kinase/lactate dehydrogenase) assay; type: biochemical; conditions: CHK-1 kinase domain; for Ki: 150 uM ATP, 125 uM Syntide 2; for percent inhibition (where no Ki data is available): inhibitor concentration not given
T1 construct: a solution containing 1 nM of CHK1 (kinase domain)
T1 sequence (O14757 9-265 limits assumed): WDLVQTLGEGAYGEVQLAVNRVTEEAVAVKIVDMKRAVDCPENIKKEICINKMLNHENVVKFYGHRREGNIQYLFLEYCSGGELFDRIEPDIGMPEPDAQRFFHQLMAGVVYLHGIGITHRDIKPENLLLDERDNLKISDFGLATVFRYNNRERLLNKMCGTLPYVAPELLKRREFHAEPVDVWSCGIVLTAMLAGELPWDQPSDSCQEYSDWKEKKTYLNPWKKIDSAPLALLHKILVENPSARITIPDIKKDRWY
Procedure, shortened: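 The CHK1 kinase domain was pre-incubated with compound for 15 min, and the reaction was started with 125 uM Syntide 2 and 150 uM ATP. ADP formation was coupled through pyruvate kinase/lactate dehydrogenase to NADH oxidation, read as the A340 decrease. Kiapp was fitted with a tight-binding equation that accounts for enzyme concentration and ATP Km; some entries are % inhibition.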

SMILES	EC50 (HeLa cells; Homo sapiens, HeLa)	Ki (CHK1 (kinase domain))	EC50 (HeLa cells)	percent inhibition (where no Ki data is available) (CHK1 (kinase domain))
CC1(Nc2cncc(-c3cnc4ccccn34)n2)CCCNC1 (centres unmarked) [Example 54, 6-Imidazo[1,2-a]pyridin-3-yl-N-(3-methylpiperidin-3-yl)pyrazin-2-amine]	1110 nM	118 nM		
C[C@H]1NCCC[C@H]1Nc1cncc(-c2cnc3sccn23)n1 [Example 180, 6-(imidazo[2,1-b][1,3]thiazol-5-yl)-N-[(2R,3R)-2-methylpiperidin-3-yl]pyrazin-2-amine]	≥ 10000 nM	1.5 nM		
CC(C)c1cn2c(-c3cncc(N[C@@H]4CCCN[C@H]4C)n3)cnc2s1 [Example 169, N-[(2S,3R)-2-methylpiperidin-3-yl]-6-[2-(propan-2-yl)imidazo[2,1-b][1,3]thiazol-5-yl]pyrazin-2-amine]			1850 nM	45.9%^
COc1ccc2c(c1)ncn2-c1cncc(N[C@@H]2CCNC2)n1 [Example 218, 6-(5-methoxy-1H-benzimidazol-1-yl)-N-[(3R)-pyrrolidin-3-yl]pyrazin-2-amine]	≥ 10000 nM	5.12 nM		
COc1ccc2ncc(-c3cncc(N[C@@H]4CCNC4)n3)n2c1 [Example 55, 6-(6-Methoxyimidazo[1,2-a]pyridin-3-yl)-N-[(3R)-pyrrolidin-3-yl]pyrazin-2-amine]	229 nM	23 nM		
Cc1cn2c(-c3cncc(N[C@@H]4CNC[C@@H]4C)n3)cnc2s1 [Example 140, 6-(2-methylimidazo[2,1-b][1,3]thiazol-5-yl)-N-[(3S,4S)-4-methylpyrrolidin-3-yl]pyrazin-2-amine]	19.2 nM	1.07 nM		
c1ccn2c(-c3cncc(N[C@H]4CCCNC4)n3)cnc2c1 [Example 3, 6-Imidazo[1,2-a]pyridin-3-yl-N-[(3S)-piperidin-3-yl]pyrazin-2-amine]	486 nM			0%
CC[C@@H]1CNC[C@@H]1Nc1cncc(-c2cnc3ccccn23)n1 [Example 196, N-[(3R,4R)-4-ethylpyrrolidin-3-yl]-6-(imidazo[1,2-a]pyridin-3-yl)pyrazin-2-amine]	16.8 nM	32 nM		
c1cnc2c(-c3cncc(N[C@@H]4CCNC4)n3)cnn2c1 [Example 121, 6-pyrazolo[1,5-a]pyrimidin-3-yl-N-[(3R)-pyrrolidin-3-yl]pyrazin-2-amine]	≥ 10000 nM			16.5%^
Cc1ccn2c(-c3cncc(N[C@@H]4CCCNC4)n3)cnc2c1 [Example 38, 6-(7-Methylimidazo[1,2-a]pyridin-3-yl)-N-[(3R)-piperidin-3-yl]pyrazin-2-amine]	40 nM	8 nM		
CCc1cn2c(-c3cncc(N[C@@H]4CCCN[C@H]4C)n3)cnc2s1 [Example 109, 6-(2-ethylimidazo[2,1-b][1,3]thiazol-5-yl)-N-[(2S,3R)-2-methylpiperidin-3-yl]pyrazin-2-amine]		28.4 nM	190 nM	
C[C@H]1NCCC[C@@H]1Nc1cncc(-c2cnc3ccc(F)cn23)n1 [Example 172, 6-(6-fluoroimidazo[1,2-a]pyridin-3-yl)-N-[(2R,3S)-2-methylpiperidin-3-yl]pyrazin-2-amine]	≥ 10000 nM	178 nM		
CC(C)c1cn2c(-c3cncc(N[C@@H]4CCCN[C@@H]4C)n3)cnc2s1 [Example 111, 6-(2-isopropylimidazo[2,1-b][1,3]thiazol-5-yl)-N-[(2R,3R)-2-methylpiperidin-3-yl]pyrazin-2-amine]		3.63 nM	22.4 nM	
Cc1ccn2c(-c3cncc(N[C@@H]4CCNC4)n3)cnc2c1 [Example 51, 6-(7-Methylimidazo[1,2-a]pyridin-3-yl)-N-[(3R)-pyrrolidin-3-yl]pyrazin-2-amine]	95.6 nM	9.6 nM		
Cc1cn2c(-c3cncc(N[C@@H]4CC[C@@H](C)NC4)n3)cnc2s1 (relative stereo) [Example 61, Trans 6-(2-Methylimidazo[2,1-b][1,3]thiazol-5-yl)-N-(6-methylpiperidin-3-yl)pyrazin-2-amine]	119 nM	37.9 nM		
C[C@@H]1C[C@@H](Nc2cncc(-c3cnn4cc(Cl)ccc34)n2)CN1 [Example 143, 6-(6-chloropyrazolo[1,5-a]pyridin-3-yl)-N-[(3R,5R)-5-methylpyrrolidin-3-yl]pyrazin-2-amine]	119 nM	1.11 nM		

SMILES	EC50 (HeLa cells; Homo sapiens, HeLa)	Ki (CHK1 (kinase domain))	EC50 (HeLa cells)	percent inhibition (where no Ki data is available) (CHK1 (kinase domain))
Cc1ncc(-c2cnc3ccccn23)nc1N[C@@H]1CCNC1 [Example 223, 6-(imidazo[1,2-a]pyridin-3-yl)-3-methyl-N-[(3R)-pyrrolidin-3-yl]pyrazin-2-amine]	329 nM	68.1 nM		
C[C@@H]1CC[C@@H](Nc2cncc(-c3cnc4ccc(F)cn34)n2)CN1 [Example 88, 6-(6-fluoroimidazo[1,2-a]pyridin-3-yl)-N-[(3R,6R)-6-methylpiperidin-3-yl]pyrazin-2-amine]	≥ 10000 nM	90.7 nM		
F[C@H]1CNC[C@@H]1Nc1cncc(-c2cnc3ccccn23)n1 (relative stereo) [Example 46, Trans N-[4-fluoropyrrolidin-3-yl]-6-imidazo[1,2-a]pyridin-3-ylpyrazin-2-amine]	7970 nM			29.7%^
FC(F)(F)c1ccn2c(-c3cncc(N[C@@H]4CCNC4)n3)cnc2c1 [Example 53, N-[(3R)-pyrrolidin-3-yl]-6-[7-(trifluoromethyl)imidazo[1,2-a]pyridin-3-yl]pyrazin-2-amine]	459 nM	37 nM		
C[C@@H]1NCCC[C@H]1Nc1cncc(-c2cnc3cnccn23)n1 [Example 167, 6-(imidazo[1,2-a]pyrazin-3-yl)-N-[(2S,3R)-2-methylpiperidin-3-yl]pyrazin-2-amine]	≥ 10000 nM	101 nM		
FC[C@@H]1C[C@@H](Nc2cncc(-c3cnc4ccccn34)n2)CN1 [Example 67, N-[(3R,5S)-5-(fluoromethyl)pyrrolidin-3-yl]-6-imidazo[1,2-a]pyridin-3-ylpyrazin-2-amine]	507 nM	80 nM		
C[C@@H]1CNC[C@@H]1Nc1cncc(-c2cnn3ccccc23)n1 [Example 119, N-[(3R,4R)-4-methylpyrrolidin-3-yl]-6-pyrazolo[1,5-a]pyridin-3-ylpyrazin-2-amine]	26.7 nM	5.38 nM		
OCc1ccc2ncc(-c3cncc(N[C@@H]4CCCNC4)n3)n2c1 [Example 151, (3-{6-[(3R)-piperidin-3-ylamino]pyrazin-2-yl}imidazo[1,2-a]pyridin-6-yl)methanol]	78.7 nM	1.07 nM		
CCc1cn2c(-c3cncc(N[C@@H]4C[C@@H]5CN[C@H]4C5)n3)cnc2s1 [Example 128, (1S,4R,6R)-N-[6-(2-ethylimidazo[2,1-b][1,3]thiazol-5-yl)pyrazin-2-yl]-2-azabicyclo[2.2.1]heptan-6-amine]	172 nM	1.79 nM		
CC(C)(C)CCOc1ccn2c(-c3cncc(N[C@@H]4CCCNC4)n3)cnc2c1 [Example 148, 6-[7-(3,3-dimethylbutoxy)imidazo[1,2-a]pyridin-3-yl]-N-[(3R)-piperidin-3-yl]pyrazin-2-amine]	≥ 10000 nM			104%^
COc1ccn2c(-c3cncc(N[C@@H]4CCNC4)n3)cnc2c1 [Example 52, 6-(7-Methoxyimidazo[1,2-a]pyridin-3-yl)-N-[(3R)-pyrrolidin-3-yl]pyrazin-2-amine]	72.9 nM	9.55 nM		
FC(F)(F)c1ccn2c(-c3cncc(N[C@@H]4CCCNC4)n3)cnc2c1 [Example 40, N-[(3R)-piperidin-3-yl]-6-[7-(trifluoromethyl)imidazo[1,2-a]pyridin-3-yl]pyrazin-2-amine]	104 nM	4.43 nM		
N#Cc1ccn2c(-c3cncc(N[C@@H]4CCNC4)n3)cnc2c1 [Example 186, 3-{6-[(3R)-pyrrolidin-3-ylamino]pyrazin-2-yl}imidazo[1,2-a]pyridine-7-carbonitrile]	664 nM	24 nM		
CCC(COC)Oc1ccn2c(-c3cncc(N[C@@H]4CCCNC4)n3)cnc2c1 (stereo partly drawn) [Example 122, 6-{7-[1-(methoxymethyl)propoxy]imidazo[1,2-a]pyridin-3-yl}-N-[(3R)-piperidin-3-yl]pyrazin-2-amine]	1060 nM	11 nM		
Clc1ccn2c(-c3cncc(N[C@@H]4CCCNC4)n3)cnc2c1 [Example 44, 6-(7-Chloroimidazo[1,2-a]pyridin-3-yl)-N-[(3R)-piperidin-3-yl]pyrazin-2-amine]	21 nM	2.51 nM		
